4 compounds from patent publication US7115572B2, “Indolicidin analogs with anti-microbial activity” (Council of Scientific and Industrial Research, priority 2001, dated 2006) can be followed below.

Read-outs that look alike come from different tables or passages of the source. Marks after values point to notes of the source that are not given here. No end group written: not given here.

Common to all, as to format: cell-based
In one data set the test system is rat erythrocytes. As to the kind of experiment: Hemolytic activity on freshly isolated rat erythrocytes. The procedure:
In still another embodiment of the present invention, hemolytic activity of the peptides is assessed on freshly isolated rat erythrocytes.
In still another embodiment of the present invention, heparinized rat blood in saline is initially centrifuged at 1000 rpm for 10 min to remove the buffy coat.
In still another embodiment of the present invention, the erythrocyte suspension is further washed thrice with 5 mM Hepes, pH 7.4 containing 150 mM NaCl.
In still another embodiment of the present invention, aliquots of cell suspension (˜10^6 cells) in eppendorf tubes are incubated with the peptide in duplicates at 37° C. for 30 min with gentle mixing.
In still another embodiment of the present invention, the tubes are then centrifuged and the absorbance of the supernatants is measured at 540 nm. The lysis obtained with 1% triton×100 is taken as 100%.

Another data set concerns Staphylococcus aureus. How it is done: (§1) In still another embodiment of the present invention, the antimicrobial activities of the peptides are determined in liquid medium by a modified method described by Lehrer et al. (10) In still another embodiment of the present invention, all incubations are carried out at 37° C. Microbial growth is determined by measuring the increase in OD600. The lowest concentration of the peptide that result in complete inhibition of growth is recorded as its minimal inhibitory concentration (MIC). In still another embodiment of the present invention, the microorganisms used are Escherichia coli ([…]) and Staphylococcus aureus. A peptide concentration in stock solution is determined by amino acid analysis.

For data set [1], the system named is Escherichia coli (W160.37). How it is done: as §1
Where [2] appears, read: lowest concentration giving complete inhibition of growth, 37° C., OD600.

Consider “ILPLKLPWLPLRR-NH2 [IL8, ILPLKLPWLPLRR-amide]”, for which, in the data set on rat erythrocytes (red cells of rat, 100), the “% Hemolytic activity at 100 μg/ml” value stood at 0%. Also, in the data set with Staphylococcus aureus, the “S.aureus (MIC μg/ml)” value amounted to 10 µg/mL. Besides, the “E.CO// (MIC μg/ml)” value in data set [1] (W160.37) was 20 µg/mL.
Take `CC[C@H](C)[C@H](N)C(=O)N[C@@H](CC(C)C)C(=O)N1CCC[C@H]1C(=O)N[C@@H](Cc1c[nH]c2ccccc12)C(=O)N[C@@H](CCCCN)C(=O)N[C@@H](Cc1c[nH]c2ccccc12)C(=O)N1CCC[C@H]1C(=O)N[C@@H](Cc1c[nH]c2ccccc12)C(=O)N[C@@H](Cc1c[nH]c2ccccc12)C(=O)N1CCC[C@H]1C(=O)N[C@@H](Cc1c[nH]c2ccccc12)C(=O)N[C@@H](CCCNC(=N)N)C(=O)N[C@@H](CCCNC(=N)N)C(N)=O` [IL, ILPWKWPWWPWRR-amide, reference compound]: the “% Hemolytic activity at 100 μg/ml” value with rat erythrocytes (100 μg/ml peptide, rat erythrocytes, 37° C., 30 min, 1% triton x100 = 100%) is on record as 100^a %. Moreover, in the data set with Staphylococcus aureus (setting [2]), the “S.aureus (MIC μg/ml)” value was determined as 2 µg/mL. Also, the “E.CO// (MIC μg/ml)” value in data set [1] (setting [2]) came out at 5 µg/mL.
“ILPLKLPLLPWRR-NH2 [IL11, ILPLKLPLLPWRR-amide]”: in the data set on rat erythrocytes (red cells of rat, 100), the “% Hemolytic activity at 100 μg/ml” value is 0%. Moreover, in the data set with Staphylococcus aureus, the “S.aureus (MIC μg/ml)” value worked out at 5 µg/mL. The “E.CO// (MIC μg/ml)” value in data set [1] (W160.37) was 20 µg/mL.
For “ILPWKLPLLPLRR-NH2 [IL4, ILPWKLPLLPLRR-amide]” the same measures were 0%, 10 µg/mL and 15 µg/mL.
